Where two headings read alike, the source gives them in different places.
Columns and labels:
CLK2 = target: T1, CLK2 (Homo sapiens, UniProt P49760); assay: CLK2 kinase activity assay (Z-lyte, Ser/Thr 6 peptide); type: biochemical; details: recombinant CLK2 kinase, ATP 60 μM; read-out: EC50
T1 construct: purchased Thermo Fisher (Life Technologies), Z'-LYTE Kinase Assay Kits
Description: All reactions were performed in duplicate.

[1] = system: ovarian cancer (4 cell lines); assay: CellTiter-Glo Viability Assay, ovarian cancer; type: cell-based; details: Homo sapiens, inhibition of cancer cell proliferation
[2] = system: liver cancer (3 cell lines); assay: CellTiter-Glo Viability Assay, liver cancer; type: cell-based; details: Homo sapiens, inhibition of cancer cell proliferation
CLK3 = CLK3 (Homo sapiens, UniProt P49761); assay: CLK3 kinase activity assay (Z-lyte, Ser/Thr 18 peptide)
T47D = assay: CellTiter-Glo Viability Assay, breast cancer; type: cell-based; details: Homo sapiens, 96 h, breast cancer, four days, read-out: EC50
BT-549 = assay: CellTiter-Glo Viability Assay, breast cancer; type: cell-based; details: Homo sapiens, 96 h; BT-549, breast cancer, four days; read-out: EC50
ZR-75-1 = assay: CellTiter-Glo Viability Assay, breast cancer; type: cell-based; details: Homo sapiens, 96 h; ZR-75-1, breast cancer, four days; read-out: EC50
HCC1599 = assay: CellTiter-Glo Viability Assay, breast cancer; type: cell-based; details: Homo sapiens, 96 h; HCC1599, breast cancer, four days; read-out: EC50
DU4475 = assay: CellTiter-Glo Viability Assay, breast cancer; type: cell-based; details: Homo sapiens, DU-4475, 96 h; DU4475, breast cancer, four days; read-out: EC50
MCF7 = assay: CellTiter-Glo Viability Assay, breast cancer; type: cell-based; details: Homo sapiens, 96 h; MCF7, breast cancer, four days; read-out: EC50
CAMA1 = assay: CellTiter-Glo Viability Assay, breast cancer; type: cell-based; details: Homo sapiens, CAMA-1, 96 h; CAMA1, breast cancer, four days; read-out: EC50
MDA-MB-231-Luc = assay: CellTiter-Glo Viability Assay, breast cancer; type: cell-based; details: Homo sapiens, 96 h; MDA-MB-231-Luc, breast cancer, four days; read-out: EC50
[3] = system: lung cancer (4 cell lines); assay: CellTiter-Glo Viability Assay, lung cancer; type: cell-based; details: Homo sapiens, inhibition of cancer cell proliferation
[4] = system: prostate cancer (5 cell lines); assay: CellTiter-Glo Viability Assay, prostate cancer; type: cell-based; details: Homo sapiens
[5] = system: colorectal cancer (6 cell lines); assay: CellTiter-Glo Viability Assay, colorectal cancer; type: cell-based; details: Homo sapiens, inhibition of cancer cell proliferation
all 50 cell lines = assay: CellTiter-Glo Viability Assay, average across all cell lines; type: cell-based; details: Homo sapiens; across all 50 cell lines; read-out: average EC50 for inhibition of cancer cell proliferation
Outline: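 4-day proliferation, 37° C/5% CO2; 300-3,000 cells/well; compound in duplicate vs DMSO controls. Panel: breast, colorectal, heme/lymphoid, liver, lung, ovarian, pancreatic, prostate lines. Read-out: CellTiter-Glo ATP luminescence, EC50 from dose-response.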

[6] = system: pancreatic cancer (8 cell lines); assay: CellTiter-Glo Viability Assay, pancreatic cancer; type: cell-based; details: Homo sapiens, inhibition of cancer cell proliferation
[7] = system: haematopoietic & lymphoid tumors (13 cell lines); assay: CellTiter-Glo Viability Assay, haematopoietic & lymphoid tumors; type: cell-based; details: Homo sapiens, inhibition of cancer cell proliferation
[8] = PA-1, PA1 cell line, read-out: Ovarian cancer, EC50 (μM) PA1
[9] = TOV112D, TOV-112D cell line, read-out: Ovarian cancer, EC50 (μM) TOV-112D
[10] = OV-90 cell line, read-out: Ovarian cancer, EC50 (μM) OV-90
[11] = OVCAR-3 cell line, read-out: Ovarian cancer, EC50 (μM) OVCAR-3
[12] = SNU-398, SNU398 cell line, read-out: Liver cancer, EC50 SNU398
[13] = HEPG2 cell line, read-out: Liver cancer, EC50 HEPG2
[14] = PLC/PRF/5 cell line, read-out: Liver cancer, EC50 PLC/PRF/5
[15] = A-427, A427 cell line, read-out: Lung cancer, EC50 (μM) A427
[16] = HCC78, HCC-78 cell line, read-out: Lung cancer, EC50 (μM) HCC-78
[17] = NCI-H460 cell line, read-out: Lung cancer, EC50 (μM) NCI-H460
[18] = NCI-H522 cell line, read-out: Lung cancer, EC50 (μM) NCI-H522
[19] = DU-145, read-out: Prostate cancer EC50 Du-145
[20] = PC-3, PC3 cell line, inhibition of cancer cell proliferation, read-out: Prostate cancer EC50 PC3
[21] = 22Rv1 cell line, inhibition of cancer cell proliferation, read-out: Prostate cancer EC50 22Rv1
[22] = LNCap clone FGC cell line, inhibition of cancer cell proliferation, read-out: Prostate cancer EC50 LNCap clone FGC
[23] = VCaP (Sigma) cell line, inhibition of cancer cell proliferation, read-out: Prostate cancer EC50 VCaP (Sigma)
[24] = SW480 cell line, read-out: Colorectal cancer, EC50 (μM) SW480
[25] = BXPC-3, BxPC3 cell line, read-out: Pancreatic cancer, EC50 BxPC3
[26] = CAPAN-1, Capan1 cell line, read-out: Pancreatic cancer, EC50 Capan1
[27] = Capan-2, Capan2 cell line, read-out: Pancreatic cancer, EC50 Capan2
[28] = MIA PaCa-2 cell line, read-out: Pancreatic cancer, EC50 MIA PaCa-2
[29] = PANC 05.04 cell line, read-out: Pancreatic cancer, EC50 PANC 05.04
[30] = PANC-1 cell line, read-out: Pancreatic cancer, EC50 PANC-1
[31] = UPAFII cell line, read-out: Pancreatic cancer, EC50 UPAFII
[32] = DND41, DND-41 cell line, read-out: Haematopoietic & Lymphoid tumors, EC50 (μM) DND-41
[33] = MV4-11, MV-4-11 cell line, read-out: Haematopoietic & Lymphoid tumors, EC50 (μM) MV-4-11
[34] = Rec1, REC-1 cell line, read-out: Haematopoietic & Lymphoid tumors, EC50 (μM) REC-1
[35] = SU-DHL-4, SUDHL4 cell line, read-out: Haematopoietic & Lymphoid tumors, EC50 (μM) SUDHL4
[36] = HL-60 cell line, read-out: Haematopoietic & Lymphoid tumors, EC50 (μM) HL-60
[37] = JM1 cell line, read-out: Haematopoietic & Lymphoid tumors, EC50 (μM) JM1
[38] = JURKAT, Clone E6-1 cell line, read-out: Haematopoietic & Lymphoid tumors, EC50 (μM) JURKAT, Clone E6-1
[39] = JeKo-1 cell line, read-out: Haematopoietic & Lymphoid tumors, EC50 (μM) JeKo-1
[40] = KASUMI-1 cell line, read-out: Haematopoietic & Lymphoid tumors, EC50 (μM) KASUMI-1
[41] = Loucy cell line, read-out: Haematopoietic & Lymphoid tumors, EC50 (μM) Loucy
[42] = MOLT-4 cell line, read-out: Haematopoietic & Lymphoid tumors, EC50 (μM) MOLT-4
[43] = TF-1 cell line, read-out: Haematopoietic & Lymphoid tumors, EC50 (μM) TF-1
[44] = TOLEDO cell line, read-out: Haematopoietic & Lymphoid tumors, EC50 (μM) TOLEDO

Chain of CLK3 (P49761 whole entry): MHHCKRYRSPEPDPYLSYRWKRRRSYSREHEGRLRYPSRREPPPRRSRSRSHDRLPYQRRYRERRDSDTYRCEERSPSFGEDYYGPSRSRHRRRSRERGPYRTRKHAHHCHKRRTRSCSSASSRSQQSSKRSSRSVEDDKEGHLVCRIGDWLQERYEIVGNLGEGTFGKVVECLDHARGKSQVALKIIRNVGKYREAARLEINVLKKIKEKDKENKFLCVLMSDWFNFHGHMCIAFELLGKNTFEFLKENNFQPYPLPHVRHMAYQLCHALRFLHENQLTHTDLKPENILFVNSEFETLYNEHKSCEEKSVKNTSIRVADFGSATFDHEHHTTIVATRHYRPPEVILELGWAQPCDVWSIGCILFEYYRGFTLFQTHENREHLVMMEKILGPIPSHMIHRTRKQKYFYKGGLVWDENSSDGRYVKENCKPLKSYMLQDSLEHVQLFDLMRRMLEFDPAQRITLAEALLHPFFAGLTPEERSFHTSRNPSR
T1 sequence (P49760 whole entry): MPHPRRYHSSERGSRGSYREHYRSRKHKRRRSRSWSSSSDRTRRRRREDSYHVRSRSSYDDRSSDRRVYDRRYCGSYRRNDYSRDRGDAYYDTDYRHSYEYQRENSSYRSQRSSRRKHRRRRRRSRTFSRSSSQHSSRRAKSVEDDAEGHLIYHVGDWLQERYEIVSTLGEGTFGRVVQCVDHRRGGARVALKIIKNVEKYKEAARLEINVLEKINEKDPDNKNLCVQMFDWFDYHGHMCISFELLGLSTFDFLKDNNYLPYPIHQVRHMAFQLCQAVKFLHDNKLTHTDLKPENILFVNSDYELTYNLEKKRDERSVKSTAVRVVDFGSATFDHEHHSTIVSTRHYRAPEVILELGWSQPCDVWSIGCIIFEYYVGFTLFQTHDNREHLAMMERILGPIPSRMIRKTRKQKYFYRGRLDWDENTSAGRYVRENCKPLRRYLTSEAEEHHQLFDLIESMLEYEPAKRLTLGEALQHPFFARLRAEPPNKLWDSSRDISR

## Cc1n[nH]c2cc(F)c(-c3cncc(CN4CCNCC4)c3)cc12 [Compound 63]
CLK2
  EC50: 12 nM
[1]; [8]
  EC50: 3.04 µM
[1]; [9]
  EC50: 3.63 µM
[1]; [10]
  EC50: 7.97 µM
[1]; [11]
  EC50: 2.62 µM
[2]; [12]
  EC50: 1370 nM
[2]; [13]
  EC50: 3440 nM
[2]; [14]
  EC50: 9520 nM
CLK3
  EC50: 343 nM
T47D
  EC50: 8470 nM
BT-549
  EC50: 4740 nM
ZR-75-1
  EC50: 6810 nM
HCC1599
  EC50: 2330 nM
DU4475
  EC50: 3870 nM
MCF7
  EC50: > 10000 nM
CAMA1
  EC50: 5210 nM
MDA-MB-231-Luc
  EC50: 6470 nM
[3]; [15]
  EC50: 4.18 µM
[3]; [16]
  EC50: 8.18 µM
[3]; [17]
  EC50: 7.41 µM
[3]; [18]
  EC50: 3.3 µM
[4]; [19]
  EC50: 6490 nM
[4]; [20]
  EC50: 4420 nM
[4]; [21]
  EC50: 3980 nM
[4]; [22]
  EC50: 6850 nM
[4]; [23]
  EC50: 6660 nM
[5]; HCT-116, HCT116 cell line, read-out: Colorectal cancer, EC50 (μM) HCT116
  EC50: 2.93 µM
[5]; HT-29, HT29 cell line, read-out: Colorectal cancer, EC50 (μM) HT29
  EC50: 6.16 µM
[5]; SW-620, SW620 cell line, read-out: Colorectal cancer, EC50 (μM) SW620
  EC50: 1.82 µM
[5]; DLD-1 cell line, read-out: Colorectal cancer, EC50 (μM) DLD-1
  EC50: 5.01 µM
[5]; SW48 cell line, read-out: Colorectal cancer, EC50 (μM) SW48
  EC50: 1.49 µM
[5]; [24]
  EC50: 3.24 µM
All 50 cell lines
  EC50: 5050 nM
[6]; [25]
  EC50: 9160 nM
[6]; [26]
  EC50: 4840 nM
[6]; [27]
  EC50: 8870 nM
[6]; [28]
  EC50: 1590 nM
[6]; [29]
  EC50: 5510 nM
[6]; [30]
  EC50: 5640 nM
[6]; [31]
  EC50: 3820 nM
[7]; [32]
  EC50: 7.09 µM
[7]; [33]
  EC50: 3.34 µM
[7]; [34]
  EC50: 3.52 µM
[7]; [35]
  EC50: 3.46 µM
[7]; [36]
  EC50: 8.7 µM
[7]; [37]
  EC50: 1.69 µM
[7]; [38]
  EC50: > 10 µM
[7]; [39]
  EC50: 1.49 µM
[7]; [40]
  EC50: 3.19 µM
[7]; [41]
  EC50: 3.72 µM
[7]; [42]
  EC50: 7.07 µM
[7]; [43]
  EC50: 6 µM
[7]; [44]
  EC50: 2.21 µM

## Cc1n[nH]c2ccc(-c3cncc(N[C@H]4CC[C@@H](N)CC4)n3)cc12 [Compound 64]
CLK2
  EC50: 1.7 nM
[1]; [8]
  EC50: 0.2 µM
[1]; [9]
  EC50: 0.155 µM
[1]; [10]
  EC50: 0.179 µM
[1]; [11]
  EC50: 0.127 µM
[2]; [12]
  EC50: 59 nM
[2]; [13]
  EC50: 402 nM
[2]; [14]
  EC50: 1490 nM
CLK3
  EC50: 482 nM
T47D
  EC50: 465 nM
BT-549
  EC50: 228 nM
ZR-75-1
  EC50: 211 nM
HCC1599
  EC50: 262 nM
DU4475
  EC50: 121 nM
MCF7
  EC50: 633 nM
CAMA1
  EC50: 473 nM
MDA-MB-231-Luc
  EC50: 451 nM
[3]; [15]
  EC50: 0.243 µM
[3]; [16]
  EC50: 0.725 µM
[3]; [17]
  EC50: 0.759 µM
[3]; [18]
  EC50: 0.396 µM
[4]; [19]
  EC50: 543 nM
[4]; [20]
  EC50: 294 nM
[4]; [21]
  EC50: 379 nM
[4]; [22]
  EC50: 636 nM
[4]; [23]
  EC50: 616 nM
[5]; [24]
  EC50: 0.123 µM
All 50 cell lines
  EC50: 398 nM
[6]; [25]
  EC50: 365 nM
[6]; [26]
  EC50: 498 nM
[6]; [27]
  EC50: 361 nM
[6]; [28]
  EC50: 157 nM
[6]; [29]
  EC50: 427 nM
[6]; [30]
  EC50: 815 nM
[6]; [31]
  EC50: 403 nM
[7]; [32]
  EC50: 0.186 µM
[7]; [33]
  EC50: 0.071 µM
[7]; [34]
  EC50: 0.812 µM
[7]; [35]
  EC50: 0.138 µM
[7]; [36]
  EC50: 0.488 µM
[7]; [37]
  EC50: 0.175 µM
[7]; [38]
  EC50: 0.624 µM
[7]; [39]
  EC50: 0.14 µM
[7]; [40]
  EC50: 0.275 µM
[7]; [41]
  EC50: 0.217 µM
[7]; [42]
  EC50: 0.383 µM
[7]; [43]
  EC50: 0.92 µM
[7]; [44]
  EC50: 0.269 µM
